pIC50: −log10 of the molar value. Like-named read-outs stand apart in the source and are kept apart here.
Assays:
LNCaP cells = test: Cell proliferation inhibition assay in LNCaP cells (0.2 nM DHT, CellTiter-Glo, 7 days); format: cell-based, human; conditions: Homo sapiens, LNCaP, 168 h
Summary of the method: (§1)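 22RV1 cells received compound alone; LNCaP cells were stimulated with 0.2 nM DHT added 1 h after compound. Seeding was 3000 cells/well.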

CYP2C19 = target: T1, CYP2C19 (Homo sapiens, UniProt P33261); test: CYP inhibition assay in human liver microsomes; format: in vitro ADME
T1 construct: co-incubated with human liver microsomes; from tissue; host or cells: human liver microsomes
Method: (§2) Test Example 3: CYP Inhibition Assay
(§3) An in vitro assay system was used to evaluate the effects of the compounds on the activities of several human liver microsomal cytochrome P450 (CYP) isozymes (CYP1A2, CYP2C9, CYP2D6, CYP3A4 (testosterone/midazolam), CYP2C19, and CYP2C8). Specific probe substrates for CYP450 isozymes were co-incubated with human liver microsomes and the compound at various concentrations (0, 0.0300, 0.100, 0.300, 1.00, 3.00, 10.0 µM). The reaction was initiated by adding the coenzyme NADPH. After the reaction was completed, the samples were processed, and the metabolites generated from the probe substrates were detected by liquid chromatography-tandem mass spectrometry (LC-MS/MS). Based on the resulting dose-response curves, the IC50 values of the test compounds for the probe substrate reactions catalyzed by each CYP isozyme were calculated.

CYP2D6 = target: T2, CYP2D6 (Homo sapiens, UniProt P10635); test: CYP inhibition assay in human liver microsomes; format: in vitro ADME
T2 construct: co-incubated with human liver microsomes; from tissue; host or cells: human liver microsomes
Method: as §2, §3

CYP2C8 = target: T3, CYP2C8 (Homo sapiens, UniProt P10632); test: CYP inhibition assay in human liver microsomes; format: in vitro ADME
T3 construct: co-incubated with human liver microsomes; from tissue; host or cells: human liver microsomes
T3 sequence (P10632 1-490): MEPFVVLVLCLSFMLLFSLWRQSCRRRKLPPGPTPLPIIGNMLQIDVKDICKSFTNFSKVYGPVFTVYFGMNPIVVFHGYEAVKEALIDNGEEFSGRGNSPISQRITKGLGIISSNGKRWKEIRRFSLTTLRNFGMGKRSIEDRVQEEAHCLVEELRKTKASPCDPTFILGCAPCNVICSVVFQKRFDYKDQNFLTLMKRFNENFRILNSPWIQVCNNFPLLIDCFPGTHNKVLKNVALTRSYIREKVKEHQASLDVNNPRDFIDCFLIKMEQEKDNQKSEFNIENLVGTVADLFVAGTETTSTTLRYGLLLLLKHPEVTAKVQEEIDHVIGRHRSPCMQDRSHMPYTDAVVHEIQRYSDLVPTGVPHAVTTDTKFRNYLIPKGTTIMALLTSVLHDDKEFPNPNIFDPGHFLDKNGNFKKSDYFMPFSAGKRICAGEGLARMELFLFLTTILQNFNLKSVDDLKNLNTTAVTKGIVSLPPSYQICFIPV
Method: as §2, §3

CYP1A2 = target: T4, CYP1A2 (Homo sapiens, UniProt P05177); test: CYP inhibition assay in human liver microsomes; format: in vitro ADME
T4 construct: co-incubated with human liver microsomes; from tissue; host or cells: human liver microsomes
T4 sequence (P05177 1-516): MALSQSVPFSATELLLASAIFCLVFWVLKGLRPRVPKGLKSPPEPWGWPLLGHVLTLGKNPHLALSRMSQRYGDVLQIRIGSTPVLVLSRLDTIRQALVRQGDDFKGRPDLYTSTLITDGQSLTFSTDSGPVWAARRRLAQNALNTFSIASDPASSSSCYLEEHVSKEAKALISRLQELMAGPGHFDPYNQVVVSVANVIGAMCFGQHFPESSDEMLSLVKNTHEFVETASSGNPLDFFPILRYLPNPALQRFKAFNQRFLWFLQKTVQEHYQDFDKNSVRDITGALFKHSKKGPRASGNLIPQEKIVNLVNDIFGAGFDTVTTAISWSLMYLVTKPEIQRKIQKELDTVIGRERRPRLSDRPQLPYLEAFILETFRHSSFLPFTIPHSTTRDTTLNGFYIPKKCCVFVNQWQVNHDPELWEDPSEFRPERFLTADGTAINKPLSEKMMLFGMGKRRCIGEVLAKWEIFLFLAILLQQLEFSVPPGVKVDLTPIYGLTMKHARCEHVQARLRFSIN
Method: as §2, §3

[1] = target: T5, CYP3A4 (testosterone/midazolam) (Homo sapiens, UniProt P08684); test: CYP inhibition assay in human liver microsomes; format: in vitro ADME
T5 construct: co-incubated with human liver microsomes; from tissue; host or cells: human liver microsomes
Method: as §2, §3

CYP2C9 = target: T6, CYP2C9 (Homo sapiens, UniProt P11712); test: CYP inhibition assay in human liver microsomes; format: in vitro ADME
T6 construct: co-incubated with human liver microsomes; from tissue; host or cells: human liver microsomes
Method: as §2, §3

[2] = Mouse pharmacokinetic test; format: in vivo, ICR mice; conditions: plasma; for Tmax: read-out: Tmax; for bioavailability: PO-30mpk vs IV-0.5mpk
Summary of the method: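 Male naive ICR mice (25–30 g, n=3 per route) received a single intravenous or oral dose, with feeding resumed 4 h post-dose. Blood was centrifuged at 4°C, and plasma was stored at -80°C until analysis.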

22RV1 cells = test: Cell proliferation inhibition assay in 22RV1 cells (CellTiter-Glo, 7 days); format: cell-based, human; conditions: Homo sapiens, 22Rv1, 168 h
Summary of the method: as §1

[3] = human liver microsomes, NADPH, read-out: CYPs 2C19 (IC50)
[4] = human liver microsomes, NADPH, read-out: CYPs 2D6 (IC50)
[5] = human liver microsomes, NADPH, read-out: CYPs 2C8 (IC50)
[6] = human liver microsomes, NADPH, read-out: CYPs 1A2 (IC50)
[7] = probe substrate midazolam, read-out: CYPs 3A4 (Midazolam) (IC50)
[8] = probe substrate testosterone, read-out: CYPs 3A4 (Testosterone) (IC50)
[9] = human liver microsomes, NADPH, read-out: CYPs 2C9 (IC50)

T2 sequence (P10635 whole entry): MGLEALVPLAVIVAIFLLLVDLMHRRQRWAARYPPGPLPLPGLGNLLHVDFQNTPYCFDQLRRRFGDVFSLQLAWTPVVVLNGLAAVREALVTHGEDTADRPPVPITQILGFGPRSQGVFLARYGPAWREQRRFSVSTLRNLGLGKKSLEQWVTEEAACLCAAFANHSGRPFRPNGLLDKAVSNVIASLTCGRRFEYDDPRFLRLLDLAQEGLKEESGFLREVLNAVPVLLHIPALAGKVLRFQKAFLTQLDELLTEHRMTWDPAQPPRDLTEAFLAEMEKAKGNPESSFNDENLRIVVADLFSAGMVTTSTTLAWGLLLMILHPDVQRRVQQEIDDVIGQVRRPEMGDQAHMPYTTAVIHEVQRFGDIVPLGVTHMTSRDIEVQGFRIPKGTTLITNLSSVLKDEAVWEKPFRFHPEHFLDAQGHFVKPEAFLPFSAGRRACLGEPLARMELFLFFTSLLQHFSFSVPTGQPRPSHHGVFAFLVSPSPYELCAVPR
T5 sequence (P08684 whole entry): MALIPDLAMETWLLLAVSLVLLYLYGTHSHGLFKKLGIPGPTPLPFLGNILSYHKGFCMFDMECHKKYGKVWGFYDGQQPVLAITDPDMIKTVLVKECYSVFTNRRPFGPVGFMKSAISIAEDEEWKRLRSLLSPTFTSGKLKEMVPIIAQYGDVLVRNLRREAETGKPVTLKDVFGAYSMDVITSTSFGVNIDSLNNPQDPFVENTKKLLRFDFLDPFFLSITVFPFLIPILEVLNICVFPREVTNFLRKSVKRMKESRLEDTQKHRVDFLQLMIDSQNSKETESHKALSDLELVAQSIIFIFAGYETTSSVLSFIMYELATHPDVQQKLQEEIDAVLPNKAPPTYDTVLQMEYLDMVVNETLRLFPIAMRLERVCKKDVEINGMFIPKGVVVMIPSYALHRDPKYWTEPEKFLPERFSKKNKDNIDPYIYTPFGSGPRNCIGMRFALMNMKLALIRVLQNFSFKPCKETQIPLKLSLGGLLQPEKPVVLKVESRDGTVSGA
T6 sequence (P11712 whole entry): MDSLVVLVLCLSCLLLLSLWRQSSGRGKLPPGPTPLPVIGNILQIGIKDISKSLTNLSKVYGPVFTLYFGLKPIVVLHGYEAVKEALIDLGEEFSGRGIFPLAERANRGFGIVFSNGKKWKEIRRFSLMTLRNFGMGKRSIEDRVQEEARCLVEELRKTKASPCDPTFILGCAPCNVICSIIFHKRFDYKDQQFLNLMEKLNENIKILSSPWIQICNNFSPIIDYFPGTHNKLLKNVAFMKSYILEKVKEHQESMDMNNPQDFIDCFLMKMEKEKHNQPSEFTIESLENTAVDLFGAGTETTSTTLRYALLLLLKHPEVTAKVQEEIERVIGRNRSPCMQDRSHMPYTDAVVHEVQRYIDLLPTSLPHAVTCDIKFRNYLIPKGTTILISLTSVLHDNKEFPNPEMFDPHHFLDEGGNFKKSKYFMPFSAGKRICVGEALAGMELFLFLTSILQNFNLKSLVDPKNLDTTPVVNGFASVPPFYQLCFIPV
T1 sequence (P33261 whole entry): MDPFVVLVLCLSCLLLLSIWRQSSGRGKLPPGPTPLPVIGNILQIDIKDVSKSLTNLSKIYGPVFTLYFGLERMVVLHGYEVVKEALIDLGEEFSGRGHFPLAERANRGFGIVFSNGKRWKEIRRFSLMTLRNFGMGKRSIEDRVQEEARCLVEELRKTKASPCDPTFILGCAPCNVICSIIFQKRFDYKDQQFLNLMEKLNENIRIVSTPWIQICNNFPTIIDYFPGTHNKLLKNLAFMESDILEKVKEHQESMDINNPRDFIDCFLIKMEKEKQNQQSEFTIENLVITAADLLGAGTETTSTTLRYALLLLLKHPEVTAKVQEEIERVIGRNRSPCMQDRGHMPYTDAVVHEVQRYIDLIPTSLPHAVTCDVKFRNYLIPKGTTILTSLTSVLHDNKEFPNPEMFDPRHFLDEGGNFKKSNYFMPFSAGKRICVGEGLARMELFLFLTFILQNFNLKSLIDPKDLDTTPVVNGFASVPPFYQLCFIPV

| Structure (SMILES) | pIC50 (LNCaP cells) | pIC50 (CYP2C19; [3]) | pIC50 (CYP2C8; [5]) | pIC50 [1, 7] | pIC50 [1, 8] | pIC50 (CYP2C9; [9]) | AUC(0-inf) ([2]; po, 30 mg/kg, PO-30mpk) [µg·h/mL] | Cmax ([2]; po, 30 mg/kg, PO-30mpk) [ng/mL] | half-life ([2]; po, 30 mg/kg, PO-30mpk) [h] | Tmax ([2]; po, 30 mg/kg, PO-30mpk) [h] | pIC50 (22RV1 cells) | C0 ([2]; 0.5 mg/kg, IV-0.5mpk) [ng/mL] | clearance ([2]; 0.5 mg/kg, IV-0.5mpk) [mL/min/kg] | bioavailability ([2]; 30 mg/kg) [%] | AUC(0-inf) ([2]; iv, 0.5 mg/kg, IV-0.5mpk) [µg·h/mL] | half-life ([2]; iv, 0.5 mg/kg, IV-0.5mpk) [h] | further results |
| --- | --- | --- | --- | --- | --- | --- | --- | --- | --- | --- | --- | --- | --- | --- | --- | --- | --- |
| CC(C)(c1ccc(-c2cnc(OCc3ccnc(N4CC([S@](C)(=N)=O)C4)n3)cn2)cc1)c1cc(Cl)c(OCCCl)c(C#N)c1 (single isomer, unassigned) [Compound 323A] | 6.24 | < 5.00 | < 5.00 | < 5.00 | < 5.00 | 5.10 | 1390 | 131000 | 5.94 | 3.3 | – | – | – | – | – | – | pIC50 (CYP2D6; [4]): < 5.00; pIC50 (CYP1A2; [6]): < 5.00 |
| CC(C)(c1ccc(-c2ccc(OCc3ccnc(P(C)(C)=O)n3)cc2)cc1)c1cc(Cl)c(OCCCl)c(C#N)c1 [Compound 2] | – | < 5.00 | – | < 5.00 | < 5.00 | 5.16 | 619 | 31700 | 12 | 3.3 | 6.11 | 1200 | 1.09 | 135 | 7.65 | 8.9 | pIC50 (CYP2D6; [4]): < 5.00; pIC50 (CYP1A2; [6]): < 5.00 |
| CC(C)(c1ccc(-c2ccc3oc(-c4ccnc(P(C)(C)=O)n4)c(N)c3c2)cc1)c1cc(Cl)c(OCCCl)c(C#N)c1 [Compound 56] | – | – | – | – | – | – | 277 | 29600 | 8.57 | 3.33 | 6.57 | 6190 | 1.02 | 55.6 | 8.3 | 6.1 | pIC50 (CYP2C19): < 5.00; pIC50 (CYP2D6): < 5.00; pIC50 (CYP2C8): < 5.00; pIC50 (CYP1A2): < 5.00; pIC50 ([1]; CYPs 3A4 (Midazolam) (IC50), probe substrate midazolam): < 5.00; pIC50 ([1]; CYPs 3A4 (Testosterone) (IC50), probe substrate testosterone): < 5.00; pIC50 (CYP2C9): < 5.00 |
| CC(C)(c1ccc(-c2ccc(OCc3ccnc(N4CC(S(C)(=O)=O)C4)n3)cn2)cc1)c1cc(Cl)c(OCCCl)c(C#N)c1 [Compound 85] | 6.48 | < 5.00 | < 5.00 | < 5.00 | < 5.00 | 5.19 | 480 | 43000 | 8.9 | 2 | 6.47 | 3110 | 0.63 | 58.3 | 13.7 | 6.12 | – |
| CC(C)(c1ccc(-c2ccc(C#Cc3cnc(P(C)(C)=O)nc3)cc2)cc1)c1cc(Cl)c(OCCCl)c(C#N)c1 [Compound 109] | 6.24 | < 5.00 | 5.06 | < 5.00 | < 5.00 | < 5.00 | 870 | 29200 | 27.1 | 4 | 6.92 | 1580 | 0.56 | 93.6 | 15.5 | 13.8 | – |
| CC(C)(c1ccc(-c2ccc(OCc3ccc(-c4cnc(P(C)(C)=O)nc4)cc3)cc2)cc1)c1cc(Cl)c(OCCCl)c(C#N)c1 [Compound 136] | 6.28 | < 5.00 | < 5.00 | < 5.00 | < 5.00 | < 5.00 | 242 | 10100 | 16.6 | 7 | 6.64 | 3730 | 0.49 | 23.5 | 17.1 | 14.6 | – |
| CC(C)(c1ccc(-c2ccc(OCc3ccc(-c4cnc(P(C)(C)=O)nc4)nc3)cc2)cc1)c1cc(Cl)c(OCCCl)c(C#N)c1 [Compound 276] | 6.29 | < 5.00 | < 5.00 | < 5.00 | < 5.00 | < 5.00 | 216 | 13200 | 9 | 4 | 6.96 | – | – | – | – | – | – |
| CC(C)(c1ccc(-c2cnc(OCc3ccnc(N4CC5(CCS5(=O)=O)C4)n3)cn2)cc1)c1cc(Cl)c(OCCCl)c(C#N)c1 [Compound 376] | 7.00 | < 5.00 | < 5.00 | < 5.00 | < 5.00 | < 5.00 | 2300 | 131000 | 23 | 4 | 6.57 | – | – | – | – | – | – |
| CC(C)(c1ccc(-c2cnc(OCc3ccnc(N4CC5(C4)CS(=N)(=O)C5)n3)cn2)cc1)c1cc(Cl)c(OCCCl)c(C#N)c1 [Compound 391] | 7.04 | < 5.00 | < 5.00 | < 5.00 | < 5.00 | 5.00 | – | – | – | – | 6.34 | – | – | – | – | – | – |

From patent EP4778922A1, “BICYCLIC COMPOUND, AND PREPARATION METHOD THEREFOR AND PHARMACEUTICAL USE THEREOF” (Shanghai Jeyou Pharmaceutical Co., Ltd., priority 2023, dated 2025)
